According to publication PMC5951806, “Rapid labelling and covalent inhibition of intracellular native proteins using ligand-directed N-acyl-N-alkyl sulfonamide” (Nature Communications, 2018):

Tests used:
Assay in all cases: TMT LC-MSMS of 11-labelled proteins
Assay type in all cases: cell-based
[1] = molecular target: Multidrug resistance-associated protein 5 (ABCC5) (Homo sapiens, UniProt O15440)
[2] = molecular target: tubulin beta chain (TUBB) (Homo sapiens, UniProt P07437)
peroxiredoxin-1 (PRDX1) = molecular target: T1, peroxiredoxin-1 (PRDX1) (Homo sapiens, UniProt Q06830)
T1 sequence (Q06830 1-199): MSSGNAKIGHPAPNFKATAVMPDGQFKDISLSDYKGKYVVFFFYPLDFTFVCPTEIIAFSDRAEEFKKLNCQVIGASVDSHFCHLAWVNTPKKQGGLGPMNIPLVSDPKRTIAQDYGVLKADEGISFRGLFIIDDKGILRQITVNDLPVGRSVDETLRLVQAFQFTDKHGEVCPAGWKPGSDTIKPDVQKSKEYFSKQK

[3] = molecular target: puromycin-sensitive aminopeptidase (NPEPPS) (Homo sapiens, UniProt P55786)
puromycin-sensitive aminopeptidase (NPEPPS), sequence (P55786 whole entry): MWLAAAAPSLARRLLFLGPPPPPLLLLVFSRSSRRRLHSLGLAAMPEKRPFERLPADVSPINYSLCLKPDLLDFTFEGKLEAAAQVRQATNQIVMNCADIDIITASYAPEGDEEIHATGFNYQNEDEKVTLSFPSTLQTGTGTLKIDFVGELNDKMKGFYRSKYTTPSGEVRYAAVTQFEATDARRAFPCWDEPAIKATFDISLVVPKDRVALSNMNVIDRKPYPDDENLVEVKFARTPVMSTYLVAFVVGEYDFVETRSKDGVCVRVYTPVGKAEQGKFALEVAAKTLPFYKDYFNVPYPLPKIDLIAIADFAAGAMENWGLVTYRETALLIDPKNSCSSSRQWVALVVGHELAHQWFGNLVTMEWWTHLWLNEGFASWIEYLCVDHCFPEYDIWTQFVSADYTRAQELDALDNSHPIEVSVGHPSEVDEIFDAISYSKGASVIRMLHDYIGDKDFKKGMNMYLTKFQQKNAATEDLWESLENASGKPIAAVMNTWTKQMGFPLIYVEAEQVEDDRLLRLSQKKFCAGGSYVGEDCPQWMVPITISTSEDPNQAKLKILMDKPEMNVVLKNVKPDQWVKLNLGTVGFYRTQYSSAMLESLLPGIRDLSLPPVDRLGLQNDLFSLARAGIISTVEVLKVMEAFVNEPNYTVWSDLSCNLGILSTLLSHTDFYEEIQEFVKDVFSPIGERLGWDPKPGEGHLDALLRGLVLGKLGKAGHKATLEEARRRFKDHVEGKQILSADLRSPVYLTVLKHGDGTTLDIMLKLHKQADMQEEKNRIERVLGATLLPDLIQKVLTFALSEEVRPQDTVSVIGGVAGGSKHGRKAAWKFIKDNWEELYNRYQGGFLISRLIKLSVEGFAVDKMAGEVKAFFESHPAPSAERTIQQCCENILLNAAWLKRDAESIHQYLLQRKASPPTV

[4] = molecular target: Actin, cytoplasmic 1 (ACTB) (Homo sapiens, UniProt P60709)
[5] = sheet Exp1, SKBR3 cells, 11 0.5 µM 3 h vs DMSO
[6] = sheet Exp1, SKBR3 cells, 11 0.5 µM 3 h vs with PU-H71 10 µM
[7] = sheet Merged, SKBR3 cells, 11 0.5 µM 3 h vs DMSO
[8] = sheet Merged, SKBR3 cells, 11 0.5 µM 3 h vs with PU-H71 10 µM

tubulin beta chain (TUBB), sequence (P07437 whole entry): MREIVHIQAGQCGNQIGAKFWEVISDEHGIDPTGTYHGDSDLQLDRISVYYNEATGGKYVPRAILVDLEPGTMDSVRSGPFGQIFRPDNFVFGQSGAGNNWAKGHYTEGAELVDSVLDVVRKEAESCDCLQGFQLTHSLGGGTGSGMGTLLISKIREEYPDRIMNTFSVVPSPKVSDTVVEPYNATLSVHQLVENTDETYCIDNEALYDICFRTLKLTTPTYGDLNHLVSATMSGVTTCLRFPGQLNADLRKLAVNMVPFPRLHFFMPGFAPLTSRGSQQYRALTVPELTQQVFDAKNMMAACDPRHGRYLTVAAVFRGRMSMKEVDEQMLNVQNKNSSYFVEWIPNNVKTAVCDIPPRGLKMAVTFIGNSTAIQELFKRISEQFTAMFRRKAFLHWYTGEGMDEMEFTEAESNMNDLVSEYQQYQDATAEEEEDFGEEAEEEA
tubulin beta chain (TUBB), sequence (P68363 whole entry partner): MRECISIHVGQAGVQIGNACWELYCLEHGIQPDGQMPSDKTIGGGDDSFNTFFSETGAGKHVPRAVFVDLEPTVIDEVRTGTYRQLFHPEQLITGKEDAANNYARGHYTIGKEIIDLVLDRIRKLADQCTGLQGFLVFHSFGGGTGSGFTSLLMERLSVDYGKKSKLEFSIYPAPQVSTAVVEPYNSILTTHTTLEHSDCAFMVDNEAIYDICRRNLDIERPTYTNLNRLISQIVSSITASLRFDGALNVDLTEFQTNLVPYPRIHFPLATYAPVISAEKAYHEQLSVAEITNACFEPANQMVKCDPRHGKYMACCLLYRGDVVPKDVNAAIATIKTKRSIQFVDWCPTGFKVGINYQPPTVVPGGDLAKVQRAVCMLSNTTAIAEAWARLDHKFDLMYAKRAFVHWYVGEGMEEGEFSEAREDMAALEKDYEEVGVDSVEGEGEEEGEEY
Multidrug resistance-associated protein 5 (ABCC5), sequence (O15440 whole entry): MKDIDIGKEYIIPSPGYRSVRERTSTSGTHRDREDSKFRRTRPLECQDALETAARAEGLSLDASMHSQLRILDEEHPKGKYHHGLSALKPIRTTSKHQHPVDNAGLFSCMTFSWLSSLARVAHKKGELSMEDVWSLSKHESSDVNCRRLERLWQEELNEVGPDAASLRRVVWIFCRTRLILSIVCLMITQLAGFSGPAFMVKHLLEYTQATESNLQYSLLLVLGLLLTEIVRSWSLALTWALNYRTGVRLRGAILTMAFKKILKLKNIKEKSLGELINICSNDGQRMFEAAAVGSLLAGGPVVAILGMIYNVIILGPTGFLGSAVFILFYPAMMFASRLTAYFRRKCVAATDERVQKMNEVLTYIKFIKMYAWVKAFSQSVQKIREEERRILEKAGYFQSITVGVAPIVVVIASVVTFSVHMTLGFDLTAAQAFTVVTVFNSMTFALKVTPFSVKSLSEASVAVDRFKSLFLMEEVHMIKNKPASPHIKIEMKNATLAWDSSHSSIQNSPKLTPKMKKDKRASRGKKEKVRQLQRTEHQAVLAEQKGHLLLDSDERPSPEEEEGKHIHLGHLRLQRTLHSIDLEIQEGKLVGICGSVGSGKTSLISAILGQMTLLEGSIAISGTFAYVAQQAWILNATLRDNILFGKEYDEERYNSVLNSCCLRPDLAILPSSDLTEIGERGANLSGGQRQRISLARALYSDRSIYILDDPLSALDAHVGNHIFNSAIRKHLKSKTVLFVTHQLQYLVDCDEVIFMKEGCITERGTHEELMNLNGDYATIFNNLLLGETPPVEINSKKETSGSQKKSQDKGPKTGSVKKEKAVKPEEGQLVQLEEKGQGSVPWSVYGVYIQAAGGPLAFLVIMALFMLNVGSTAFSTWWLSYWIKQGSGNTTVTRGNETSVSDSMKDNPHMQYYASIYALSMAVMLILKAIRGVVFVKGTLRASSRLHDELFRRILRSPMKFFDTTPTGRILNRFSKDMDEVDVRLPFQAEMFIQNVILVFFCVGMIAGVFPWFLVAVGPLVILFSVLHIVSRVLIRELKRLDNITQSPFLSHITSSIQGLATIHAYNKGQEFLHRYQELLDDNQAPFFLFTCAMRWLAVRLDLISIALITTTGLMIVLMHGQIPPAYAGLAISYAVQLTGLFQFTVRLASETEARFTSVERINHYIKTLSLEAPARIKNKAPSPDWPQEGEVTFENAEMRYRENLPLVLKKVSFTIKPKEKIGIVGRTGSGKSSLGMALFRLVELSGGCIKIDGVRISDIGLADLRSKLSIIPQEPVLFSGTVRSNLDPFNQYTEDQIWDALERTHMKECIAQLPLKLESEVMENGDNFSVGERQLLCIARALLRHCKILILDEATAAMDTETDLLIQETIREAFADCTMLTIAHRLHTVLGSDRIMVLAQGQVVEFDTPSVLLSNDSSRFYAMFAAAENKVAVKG

CC(=O)Oc1ccc2c(c1)Oc1cc(OC(C)=O)ccc1C21OC(=O)c2cc(C(=O)NCCOCCOCCNC(=O)CCCC(=O)N(CC#N)S(=O)(=O)c3ccc(C(=O)NCCCn4c(Sc5cc6c(cc5I)OCO6)nc5c(N)ncnc54)cc3)ccc21 [compound 11]
Abundance Ratio: (11) / (11 with PU-H71) ([1]; Exp3, ABCC5): 0.868
Abundance Ratio: (11) / (DMSO) ([1]; Exp3, ABCC5): 4.007
Abundances (Grouped): 11 ([1]; Exp3, ABCC5): 227.2
Abundances (Grouped): 11 with PU-H71 ([1]; Exp3, ABCC5): 261.9
Abundance Ratio: (11) / (DMSO) [1, 5]: 1.935
Abundance Ratio: (11) / (11 with PU-H71) [1, 6]: 1.002
Abundance Ratio: (11) / (11 with PU-H71) ([1]; sheet Exp2, ABCC5): 0.947
Abundance Ratio: (11) / (DMSO) ([1]; sheet Exp2, ABCC5): 2.92
Abundances (Grouped): 11 ([1]; sheet Exp2, ABCC5): 189.2
Abundances (Grouped): 11 with PU-H71 ([1]; sheet Exp2, ABCC5): 199.7
Abundance Ratio: (11) / (DMSO) [1, 7]: 3.871
Abundance Ratio: (11) / (11 with PU-H71) [1, 8]: 0.868
Abundance Ratio: (11) / (11 with PU-H71) ([2]; Exp3, TUBB): 0.804
Abundance Ratio: (11) / (DMSO) ([2]; Exp3, TUBB): 4.633
Abundances (Grouped): 11 ([2]; Exp3, TUBB): 127.4
Abundances (Grouped): 11 with PU-H71 ([2]; Exp3, TUBB): 158.4
Abundance Ratio: (11) / (DMSO) [2, 5]: 3.833
Abundance Ratio: (11) / (11 with PU-H71) [2, 6]: 0.775
Abundance Ratio: (11) / (11 with PU-H71) ([2]; sheet Exp2, TUBB): 0.757
Abundance Ratio: (11) / (DMSO) ([2]; sheet Exp2, TUBB): 3.139
Abundances (Grouped): 11 ([2]; sheet Exp2, TUBB): 115.5
Abundances (Grouped): 11 with PU-H71 ([2]; sheet Exp2, TUBB): 152.6
Abundance Ratio: (11) / (DMSO) [2, 7]: 3.599
Abundance Ratio: (11) / (11 with PU-H71) [2, 8]: 0.804
Abundance Ratio: (11) / (11 with PU-H71) (peroxiredoxin-1 (PRDX1); Exp3, PRDX1): 0.822
Abundance Ratio: (11) / (DMSO) (peroxiredoxin-1 (PRDX1); Exp3, PRDX1): 2.683
Abundances (Grouped): 11 (peroxiredoxin-1 (PRDX1); Exp3, PRDX1): 295.4
Abundances (Grouped): 11 with PU-H71 (peroxiredoxin-1 (PRDX1); Exp3, PRDX1): 359.3
Abundance Ratio: (11) / (DMSO) (peroxiredoxin-1 (PRDX1); [5]): 2.358
Abundance Ratio: (11) / (11 with PU-H71) (peroxiredoxin-1 (PRDX1); [6]): 0.804
Abundance Ratio: (11) / (11 with PU-H71) (peroxiredoxin-1 (PRDX1); sheet Exp2, PRDX1): 0.861
Abundance Ratio: (11) / (DMSO) (peroxiredoxin-1 (PRDX1); sheet Exp2, PRDX1): 2.62
Abundances (Grouped): 11 (peroxiredoxin-1 (PRDX1); sheet Exp2, PRDX1): 93.8
Abundances (Grouped): 11 with PU-H71 (peroxiredoxin-1 (PRDX1); sheet Exp2, PRDX1): 109
Abundance Ratio: (11) / (DMSO) (peroxiredoxin-1 (PRDX1); [7]): 2.219
Abundance Ratio: (11) / (11 with PU-H71) (peroxiredoxin-1 (PRDX1); [8]): 0.847
Abundance Ratio: (11) / (11 with PU-H71) ([3]; Exp3, NPEPPS): 0.586
Abundance Ratio: (11) / (DMSO) ([3]; Exp3, NPEPPS): 3.067
Abundances (Grouped): 11 ([3]; Exp3, NPEPPS): 616.5
Abundances (Grouped): 11 with PU-H71 ([3]; Exp3, NPEPPS): 1052.4
Abundance Ratio: (11) / (DMSO) [3, 5]: 3.569
Abundance Ratio: (11) / (11 with PU-H71) [3, 6]: 0.575
Abundance Ratio: (11) / (11 with PU-H71) ([3]; sheet Exp2, NPEPPS): 0.592
Abundance Ratio: (11) / (DMSO) ([3]; sheet Exp2, NPEPPS): 3.192
Abundances (Grouped): 11 ([3]; sheet Exp2, NPEPPS): 968.9
Abundances (Grouped): 11 with PU-H71 ([3]; sheet Exp2, NPEPPS): 1636.1
Abundance Ratio: (11) / (DMSO) [3, 7]: 3.569
Abundance Ratio: (11) / (11 with PU-H71) [3, 8]: 0.575
Abundance Ratio: (11) / (11 with PU-H71) ([4]; Exp3, ACTB): 0.843
Abundance Ratio: (11) / (DMSO) ([4]; Exp3, ACTB): 2.666
Abundances (Grouped): 11 ([4]; Exp3, ACTB): 445.7
Abundances (Grouped): 11 with PU-H71 ([4]; Exp3, ACTB): 528.9
Abundance Ratio: (11) / (DMSO) [4, 5]: 3.266
Abundance Ratio: (11) / (11 with PU-H71) [4, 6]: 0.822
Abundance Ratio: (11) / (11 with PU-H71) ([4]; sheet Exp2, ACTB): 0.825
Abundance Ratio: (11) / (DMSO) ([4]; sheet Exp2, ACTB): 3.623
Abundances (Grouped): 11 ([4]; sheet Exp2, ACTB): 493.5
Abundances (Grouped): 11 with PU-H71 ([4]; sheet Exp2, ACTB): 598.3
Abundance Ratio: (11) / (DMSO) [4, 7]: 3.272
Abundance Ratio: (11) / (11 with PU-H71) [4, 8]: 0.843
